≈ marks a conversion by molar mass, not a printed value.
Legend:
[1] = test system: CCRF-CEM human acute lymphoblastic leukemia cells; experiment: Cytotoxicity test, MTT colorimetric method, CCRF-CEM; format: cell-based
Experimental: (§1) The cytotoxicity test of the obtained major ergostane triterpenoid compounds (zhankuic acid A, zhankuic acid C, antcin C and antcin K) and their stereoisomeric pure compounds (compounds E1 to E6 and E9 to E10) were performed on three leukemia cell lines using MTT (3-(4,5-dimethylthiazol-2-yl)-2,5-diphenyltetrazolium bromide) colorimetric method, and the results were referred to Table 8.

[2] = test system: Molt 4 human acute lymphoblastic leukemia cells; experiment: Cytotoxicity test, MTT colorimetric method, Molt 4; format: cell-based
Experimental: as §1

[3] = test system: HL 60 human promyelocytic leukemia cells; experiment: Cytotoxicity test, MTT colorimetric method, HL 60; format: cell-based
Experimental: as §1

[4] = Solubility in solvents for optical rotation measurement; format: physicochemical; conditions: methanol or ethanol
Experimental: After determining the absolute configuration, we tried to measure the optical rotation aiming to complete the spectral profile for the isolated compounds. In a previous report, the mixture form of zhankuic acid A was dissolved in methanol to measure its optical rotation. […] The solubility of compounds E9 and E10 improved through using acetone-methanol mixture. Considering compounds solubility and the convenience of collecting physical and spectral data using single solvent, pyridine was used in optical rotation experiment. The optical rotation of compound E9 was [α]D^25+32.1 (c 0.70, pyridine), and that of compound E10 was [α]D^25+9.0 (c 0.84, pyridine).

| Molecule | IC50 (μg/ml) CCRF-CEM [1] [µg/mL] | IC50 (μg/ml) Molt 4 [2] [µg/mL] | IC50 (μg/ml) HL 60 [3] [µg/mL] | solubility in single solvent [4] |
| --- | --- | --- | --- | --- |
| antcin K | >80 | >80 | >80 |  |
| C=C(CC[C@@H](C)[C@H]1CC[C@H]2C3=C(C(=O)C[C@]12C)[C@@]1(C)CCC(=O)[C@@H](C)C1C[C@@H]3O)[C@H](C)C(=O)O (stereo partly drawn) [Compound E3, 7β-hydroxy-4α-methylergosta-8,24(28)-dien-3,11-dion-25S-26-oic acid] | 30.681 ± 5.30 (≈ 65.2 µM) | 77.04 ± 2.78 (≈ 164 µM) | >80 |  |
| C=C(CC[C@@H](C)[C@H]1CC[C@H]2C3=C(C(=O)C[C@]12C)[C@@]1(C)CCC(=O)[C@@H](C)[C@@H]1CC3=O)C(C)C(=O)O (some centres unmarked) [Zhankuic acid A, zhankuic acid A] | 47.04 ± 6.191 (≈ 100 µM) | 53.23 ± 3.88 (≈ 114 µM) | 69.98 ± 18.98 (≈ 149 µM) |  |
| 3α,4β,7β-trihydroxy-4α-methylergosta-8,24(28)-dien-11-on-25S-26-oic acid [Compound E1] | >80 | >80 | >80 |  |
| antcin C | 28.82 ± 6.79 | 55.02 ± 3.34 | 47.02 ± 4.45 |  |
| C=C(CC[C@@H](C)[C@H]1CC[C@H]2C3=C(C(=O)C[C@]12C)[C@@]1(C)CCC(=O)[C@@H](C)C1CC3=O)[C@H](C)C(=O)O (stereo partly drawn) [Compound E9, 4α-methylergosta-8,24(28)-dien-3,7,11-trion-25S-26-oic acid] | 21.99 ± 7.91 (≈ 46.9 µM) | 42.16 ± 2.33 (≈ 90 µM) | 54.67 ± 8.14 (≈ 117 µM) | not sufficient |
| C=C(CC[C@@H](C)[C@H]1CC[C@H]2C3=C(C(=O)[C@H](O)[C@]12C)[C@@]1(C)CC[C@@H](O)[C@@H](C)C1CC3=O)[C@H](C)C(=O)O (stereo partly drawn) [Compound E6, 3α,12α-dihydroxy-4α-methylergosta-8,24(28)-dien-7,11-dion-25S-26-oic acid] | >80 | >80 | >80 |  |
| C=C(CC[C@@H](C)[C@H]1CC[C@H]2C3=C(C(=O)[C@H](O)[C@]12C)[C@@]1(C)CC[C@@H](O)[C@@H](C)[C@@H]1CC3=O)C(C)C(=O)O (some centres unmarked) [Zhankuic acid C, zhankuic acid C] | >80 | >80 | >80 |  |
| C=C(CC[C@@H](C)[C@H]1CC[C@H]2C3=C(C(=O)[C@H](O)[C@]12C)[C@@]1(C)CC[C@@H](O)[C@@H](C)C1CC3=O)[C@@H](C)C(=O)O (stereo partly drawn) [Compound E5, 3α,12α-dihydroxy-4α-methylergosta-8,24(28)-dien-7,11-dion-25R-26-oic acid] | >80 | >80 | >80 |  |
| C=C(CC[C@@H](C)[C@H]1CC[C@H]2C3=C(C(=O)C[C@]12C)[C@@]1(C)CCC(=O)[C@@H](C)C1C[C@@H]3O)[C@@H](C)C(=O)O (stereo partly drawn) [Compound E4, 7β-hydroxy-4α-methylergosta-8,24(28)-dien-3,11-dion-25R-26-oic acid] | 27.94 ± 6.44 (≈ 59.4 µM) | 54.28 ± 1.96 (≈ 115 µM) | >80 |  |
| C=C(CC[C@@H](C)[C@H]1CC[C@H]2C3=C(C(=O)C[C@]12C)[C@@]1(C)CCC(=O)[C@@H](C)C1CC3=O)[C@@H](C)C(=O)O (stereo partly drawn) [Compound E10, 4α-methylergosta-8,24(28)-dien-3,7,11-trion-25R-26-oic acid] | 22.90 ± 7.60 (≈ 48.9 µM) | 16.44 ± 3.77 (≈ 35.1 µM) | 23.32 ± 1.60 (≈ 49.8 µM) | not sufficient |
| C=C(CC[C@@H](C)[C@H]1CC[C@H]2C3=C(C(=O)C[C@]12C)[C@@]1(C)CC[C@@H](O)[C@](C)(O)[C@@H]1C[C@@H]3O)[C@@H](C)C(=O)O [Compound E2, 3α,4β,7β-trihydroxy-4α-methylergosta-8,24(28)-dien-11-on-25R-26-oic acid] | >80 | >80 | >80 |  |

— patent US20170226150A1, “TRITERPENOID COMPOSITION OF ANTRODIA CINNAMOMEA, PREPARATION AND ANALYSIS METHOD THEREOF” (KAOHSIUNG MEDICAL UNIVERSITY, priority 2011, published 2017)
